From the NIST ThermoML archive (doi:10.1016/j.jct.2009.07.002)
± gives the expanded uncertainty stated by the source.

Test: isobaric coefficient of expansion
Settings: Liquid, DSC with Pressure Shift

CCCCCCCO [heptan-1-ol]
isobaric coefficient of expansion
Settings	278.15 K	288.15 K	298.15 K	308.15 K	318.15 K	328.15 K	338.15 K	348.15 K
5000 kPa	0.000799 ± 3.4e-05 1/K	0.000815 ± 3.5e-05 1/K	0.000831 ± 3.5e-05 1/K	0.000854 ± 3.6e-05 1/K	0.000878 ± 3.7e-05 1/K	0.000903 ± 3.8e-05 1/K	0.000928 ± 3.9e-05 1/K	0.000956 ± 4.1e-05 1/K
10000 kPa	0.000779 ± 3.3e-05 1/K	0.000798 ± 3.4e-05 1/K	0.000811 ± 3.4e-05 1/K	0.000832 ± 3.5e-05 1/K	0.000854 ± 3.6e-05 1/K	0.000876 ± 3.7e-05 1/K	0.000901 ± 3.8e-05 1/K	0.000927 ± 3.9e-05 1/K
15000 kPa	0.000767 ± 3.3e-05 1/K	0.000784 ± 3.3e-05 1/K	0.000795 ± 3.4e-05 1/K	0.000813 ± 3.5e-05 1/K	0.000833 ± 3.5e-05 1/K	0.000849 ± 3.6e-05 1/K	0.000875 ± 3.7e-05 1/K	0.000899 ± 3.8e-05 1/K
20000 kPa	0.000754 ± 3.2e-05 1/K	0.000769 ± 3.3e-05 1/K	0.000779 ± 3.3e-05 1/K	0.000796 ± 3.4e-05 1/K	0.000814 ± 3.5e-05 1/K	0.000831 ± 3.5e-05 1/K	0.000851 ± 3.6e-05 1/K	0.000872 ± 3.7e-05 1/K
25000 kPa	0.000741 ± 3.1e-05 1/K	0.000757 ± 3.2e-05 1/K	0.000762 ± 3.2e-05 1/K	0.000776 ± 3.3e-05 1/K	0.000792 ± 3.4e-05 1/K	0.000811 ± 3.4e-05 1/K	0.00083 ± 3.5e-05 1/K	0.000848 ± 3.6e-05 1/K
30000 kPa	0.000726 ± 3.1e-05 1/K	0.000743 ± 3.2e-05 1/K	0.000747 ± 3.2e-05 1/K	0.000761 ± 3.2e-05 1/K	0.000775 ± 3.3e-05 1/K	0.000792 ± 3.4e-05 1/K	0.000809 ± 3.4e-05 1/K	0.000826 ± 3.5e-05 1/K
35000 kPa	0.000713 ± 3e-05 1/K	0.00073 ± 3.1e-05 1/K	0.000734 ± 3.1e-05 1/K	0.000747 ± 3.2e-05 1/K	0.00076 ± 3.2e-05 1/K	0.000775 ± 3.3e-05 1/K	0.000791 ± 3.4e-05 1/K	0.000806 ± 3.4e-05 1/K
40000 kPa	0.000697 ± 3e-05 1/K	0.000716 ± 3e-05 1/K	0.000716 ± 3e-05 1/K	0.00073 ± 3.1e-05 1/K	0.000742 ± 3.1e-05 1/K	0.000756 ± 3.2e-05 1/K	0.000769 ± 3.3e-05 1/K	0.000786 ± 3.3e-05 1/K
45000 kPa	0.00069 ± 2.9e-05 1/K	0.000708 ± 3e-05 1/K	0.000709 ± 3e-05 1/K	0.000717 ± 3e-05 1/K	0.00073 ± 3.1e-05 1/K	0.00074 ± 3.1e-05 1/K	0.000754 ± 3.2e-05 1/K	0.000768 ± 3.3e-05 1/K
50000 kPa	0.000682 ± 2.9e-05 1/K	0.000694 ± 2.9e-05 1/K	0.000695 ± 2.9e-05 1/K	0.000705 ± 3e-05 1/K	0.000714 ± 3e-05 1/K	0.000726 ± 3.1e-05 1/K	0.000741 ± 3.1e-05 1/K	0.000752 ± 3.2e-05 1/K
55000 kPa	0.000673 ± 2.9e-05 1/K	0.000686 ± 2.9e-05 1/K	0.000684 ± 2.9e-05 1/K	0.000693 ± 2.9e-05 1/K	0.000703 ± 3e-05 1/K	0.000715 ± 3e-05 1/K	0.000725 ± 3.1e-05 1/K	0.000737 ± 3.1e-05 1/K

CCCCCCO [hexan-1-ol]
isobaric coefficient of expansion
Settings	278.15 K	288.15 K	298.15 K	308.15 K	318.15 K	328.15 K	338.15 K	348.15 K
5000 kPa	0.000821 ± 3.5e-05 1/K	0.000837 ± 3.6e-05 1/K	0.00085 ± 3.6e-05 1/K	0.000875 ± 3.7e-05 1/K	0.000898 ± 3.8e-05 1/K	0.000929 ± 3.9e-05 1/K	0.000958 ± 4.1e-05 1/K	0.000995 ± 4.2e-05 1/K
10000 kPa	0.0008 ± 3.4e-05 1/K	0.000819 ± 3.5e-05 1/K	0.000832 ± 3.5e-05 1/K	0.000853 ± 3.6e-05 1/K	0.000877 ± 3.7e-05 1/K	0.0009 ± 3.8e-05 1/K	0.000929 ± 3.9e-05 1/K	0.00096 ± 4.1e-05 1/K
15000 kPa	0.000788 ± 3.3e-05 1/K	0.000802 ± 3.4e-05 1/K	0.000812 ± 3.4e-05 1/K	0.000834 ± 3.5e-05 1/K	0.000854 ± 3.6e-05 1/K	0.000876 ± 3.7e-05 1/K	0.000903 ± 3.8e-05 1/K	0.000929 ± 3.9e-05 1/K
20000 kPa	0.000778 ± 3.3e-05 1/K	0.000786 ± 3.3e-05 1/K	0.000796 ± 3.4e-05 1/K	0.000815 ± 3.5e-05 1/K	0.000833 ± 3.5e-05 1/K	0.000854 ± 3.6e-05 1/K	0.00088 ± 3.7e-05 1/K	0.000903 ± 3.8e-05 1/K
25000 kPa	0.00076 ± 3.2e-05 1/K	0.000772 ± 3.3e-05 1/K	0.00078 ± 3.3e-05 1/K	0.000796 ± 3.4e-05 1/K	0.000812 ± 3.4e-05 1/K	0.000833 ± 3.5e-05 1/K	0.000854 ± 3.6e-05 1/K	0.000875 ± 3.7e-05 1/K
30000 kPa	0.000748 ± 3.2e-05 1/K	0.000756 ± 3.2e-05 1/K	0.000764 ± 3.2e-05 1/K	0.000779 ± 3.3e-05 1/K	0.000794 ± 3.4e-05 1/K	0.000813 ± 3.4e-05 1/K	0.000832 ± 3.5e-05 1/K	0.000852 ± 3.6e-05 1/K
35000 kPa	0.000733 ± 3.1e-05 1/K	0.000743 ± 3.2e-05 1/K	0.000749 ± 3.2e-05 1/K	0.000763 ± 3.2e-05 1/K	0.000778 ± 3.3e-05 1/K	0.000794 ± 3.4e-05 1/K	0.000813 ± 3.5e-05 1/K	0.000831 ± 3.5e-05 1/K
40000 kPa	0.000723 ± 3.1e-05 1/K	0.000731 ± 3.1e-05 1/K	0.000734 ± 3.1e-05 1/K	0.000747 ± 3.2e-05 1/K	0.000758 ± 3.2e-05 1/K	0.000776 ± 3.3e-05 1/K	0.000791 ± 3.4e-05 1/K	0.000808 ± 3.4e-05 1/K
45000 kPa	0.000716 ± 3e-05 1/K	0.00072 ± 3.1e-05 1/K	0.000724 ± 3.1e-05 1/K	0.000733 ± 3.1e-05 1/K	0.000745 ± 3.2e-05 1/K	0.000759 ± 3.2e-05 1/K	0.000776 ± 3.3e-05 1/K	0.000791 ± 3.4e-05 1/K
50000 kPa	0.000708 ± 3e-05 1/K	0.000703 ± 3e-05 1/K	0.000712 ± 3e-05 1/K	0.000721 ± 3.1e-05 1/K	0.000729 ± 3.1e-05 1/K	0.000745 ± 3.2e-05 1/K	0.000758 ± 3.2e-05 1/K	0.000772 ± 3.3e-05 1/K
55000 kPa	0.000699 ± 3e-05 1/K	0.000696 ± 3e-05 1/K	0.0007 ± 3e-05 1/K	0.000709 ± 3e-05 1/K	0.000719 ± 3.1e-05 1/K	0.000731 ± 3.1e-05 1/K	0.000744 ± 3.2e-05 1/K	0.000754 ± 3.2e-05 1/K
